ChEMBL document CHEMBL5291721, “A preclinical secondary pharmacology resource illuminates target-adverse drug reaction associations of marketed drugs” (Nat Commun, 2023)

Tests used:
Glucocorticoid receptor = biological target: T1, Glucocorticoid receptor (Homo sapiens, UniProt P04150)
T1 sequence (P04150 whole entry): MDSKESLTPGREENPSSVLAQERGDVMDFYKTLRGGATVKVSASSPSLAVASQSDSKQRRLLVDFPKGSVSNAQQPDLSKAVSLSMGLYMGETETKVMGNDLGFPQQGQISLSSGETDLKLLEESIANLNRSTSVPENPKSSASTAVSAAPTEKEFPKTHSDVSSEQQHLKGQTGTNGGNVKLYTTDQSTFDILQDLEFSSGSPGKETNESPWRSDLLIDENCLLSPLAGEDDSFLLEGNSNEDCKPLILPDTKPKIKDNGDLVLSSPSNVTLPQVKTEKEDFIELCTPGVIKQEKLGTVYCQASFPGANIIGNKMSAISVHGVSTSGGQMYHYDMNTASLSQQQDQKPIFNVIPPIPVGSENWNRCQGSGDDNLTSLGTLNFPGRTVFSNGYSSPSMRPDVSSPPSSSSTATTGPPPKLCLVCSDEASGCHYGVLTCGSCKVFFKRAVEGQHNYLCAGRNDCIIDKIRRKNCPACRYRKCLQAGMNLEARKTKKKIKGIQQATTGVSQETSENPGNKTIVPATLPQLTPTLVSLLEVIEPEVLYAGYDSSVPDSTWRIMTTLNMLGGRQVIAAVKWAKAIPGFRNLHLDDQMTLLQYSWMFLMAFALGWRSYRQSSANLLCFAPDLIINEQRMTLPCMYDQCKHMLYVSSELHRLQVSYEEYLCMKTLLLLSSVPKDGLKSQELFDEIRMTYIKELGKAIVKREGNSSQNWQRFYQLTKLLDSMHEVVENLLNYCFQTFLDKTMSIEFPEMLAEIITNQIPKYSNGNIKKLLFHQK

Vasopressin V1a receptor = Vasopressin V1a receptor (Homo sapiens, UniProt P37288)
Sequence of Vasopressin V1a receptor (P37288 whole entry): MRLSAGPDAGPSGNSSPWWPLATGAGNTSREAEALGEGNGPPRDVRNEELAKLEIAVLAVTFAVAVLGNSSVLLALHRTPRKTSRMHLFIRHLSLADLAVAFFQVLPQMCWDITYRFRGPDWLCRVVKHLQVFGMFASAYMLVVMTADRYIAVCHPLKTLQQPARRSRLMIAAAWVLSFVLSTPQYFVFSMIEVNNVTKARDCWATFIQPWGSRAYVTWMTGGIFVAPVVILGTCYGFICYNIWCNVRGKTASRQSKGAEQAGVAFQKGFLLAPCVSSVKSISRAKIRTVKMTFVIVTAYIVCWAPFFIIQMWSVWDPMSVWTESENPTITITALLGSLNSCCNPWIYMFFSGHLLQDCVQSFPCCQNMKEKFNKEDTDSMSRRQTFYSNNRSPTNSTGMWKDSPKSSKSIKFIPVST

Histamine H3 receptor = Histamine H3 receptor (Homo sapiens, UniProt Q9Y5N1)
Sequence of Histamine H3 receptor (Q9Y5N1 whole entry): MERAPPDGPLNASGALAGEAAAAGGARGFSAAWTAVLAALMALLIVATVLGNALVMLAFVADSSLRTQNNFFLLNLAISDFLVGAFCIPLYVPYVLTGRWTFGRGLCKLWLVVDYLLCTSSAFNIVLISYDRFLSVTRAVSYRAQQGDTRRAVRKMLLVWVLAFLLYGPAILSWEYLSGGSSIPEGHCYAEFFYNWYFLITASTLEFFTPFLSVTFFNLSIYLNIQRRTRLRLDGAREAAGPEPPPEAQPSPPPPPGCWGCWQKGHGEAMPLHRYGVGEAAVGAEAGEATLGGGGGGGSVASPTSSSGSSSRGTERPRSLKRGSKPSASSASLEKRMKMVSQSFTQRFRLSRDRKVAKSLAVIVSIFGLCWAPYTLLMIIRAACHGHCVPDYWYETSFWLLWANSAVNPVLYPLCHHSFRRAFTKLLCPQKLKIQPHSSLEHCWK

Mu-type opioid receptor = Mu-type opioid receptor (Homo sapiens, UniProt P35372)
Sequence of Mu-type opioid receptor (P35372 whole entry): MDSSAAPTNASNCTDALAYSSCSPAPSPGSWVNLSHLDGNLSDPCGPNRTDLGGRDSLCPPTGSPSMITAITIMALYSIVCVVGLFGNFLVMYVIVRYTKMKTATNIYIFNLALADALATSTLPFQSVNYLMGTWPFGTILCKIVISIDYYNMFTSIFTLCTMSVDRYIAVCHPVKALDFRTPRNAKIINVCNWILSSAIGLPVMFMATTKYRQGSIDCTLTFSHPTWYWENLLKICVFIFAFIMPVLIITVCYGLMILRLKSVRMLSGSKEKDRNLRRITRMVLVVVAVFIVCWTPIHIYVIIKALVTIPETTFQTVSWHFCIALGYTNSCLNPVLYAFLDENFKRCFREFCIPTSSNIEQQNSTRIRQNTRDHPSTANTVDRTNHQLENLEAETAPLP

[1] = biological target: T2, Beta-2 adrenergic receptor (Homo sapiens, UniProt P07550)
T2 sequence (P07550 whole entry): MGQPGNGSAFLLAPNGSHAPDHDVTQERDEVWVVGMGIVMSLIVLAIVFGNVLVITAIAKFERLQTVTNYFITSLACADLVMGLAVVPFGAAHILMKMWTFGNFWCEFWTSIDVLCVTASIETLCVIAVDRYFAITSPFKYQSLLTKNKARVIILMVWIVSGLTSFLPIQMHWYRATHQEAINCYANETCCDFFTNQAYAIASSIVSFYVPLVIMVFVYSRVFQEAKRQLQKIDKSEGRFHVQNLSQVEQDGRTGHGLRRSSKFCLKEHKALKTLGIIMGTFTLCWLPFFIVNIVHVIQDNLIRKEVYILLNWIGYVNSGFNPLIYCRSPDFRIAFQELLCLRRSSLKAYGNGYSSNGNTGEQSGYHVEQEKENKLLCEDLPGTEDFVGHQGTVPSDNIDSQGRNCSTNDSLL

Endothelin-1 receptor = biological target: T3, Endothelin-1 receptor (Homo sapiens, UniProt P25101)
T3 sequence (P25101 whole entry): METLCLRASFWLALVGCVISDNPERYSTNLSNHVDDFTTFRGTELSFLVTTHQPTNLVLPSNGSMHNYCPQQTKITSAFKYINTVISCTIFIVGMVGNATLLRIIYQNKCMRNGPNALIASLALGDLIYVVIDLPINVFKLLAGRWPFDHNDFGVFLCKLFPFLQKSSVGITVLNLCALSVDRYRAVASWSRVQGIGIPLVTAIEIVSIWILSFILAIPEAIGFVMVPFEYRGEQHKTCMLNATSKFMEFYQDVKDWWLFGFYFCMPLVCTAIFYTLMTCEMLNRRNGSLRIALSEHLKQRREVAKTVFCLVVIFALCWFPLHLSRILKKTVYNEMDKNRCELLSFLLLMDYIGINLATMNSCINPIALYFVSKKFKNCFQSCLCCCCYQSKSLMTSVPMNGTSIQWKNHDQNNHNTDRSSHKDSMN

Progesterone receptor = biological target: T4, Progesterone receptor (Homo sapiens, UniProt P06401)
T4 sequence (P06401 whole entry): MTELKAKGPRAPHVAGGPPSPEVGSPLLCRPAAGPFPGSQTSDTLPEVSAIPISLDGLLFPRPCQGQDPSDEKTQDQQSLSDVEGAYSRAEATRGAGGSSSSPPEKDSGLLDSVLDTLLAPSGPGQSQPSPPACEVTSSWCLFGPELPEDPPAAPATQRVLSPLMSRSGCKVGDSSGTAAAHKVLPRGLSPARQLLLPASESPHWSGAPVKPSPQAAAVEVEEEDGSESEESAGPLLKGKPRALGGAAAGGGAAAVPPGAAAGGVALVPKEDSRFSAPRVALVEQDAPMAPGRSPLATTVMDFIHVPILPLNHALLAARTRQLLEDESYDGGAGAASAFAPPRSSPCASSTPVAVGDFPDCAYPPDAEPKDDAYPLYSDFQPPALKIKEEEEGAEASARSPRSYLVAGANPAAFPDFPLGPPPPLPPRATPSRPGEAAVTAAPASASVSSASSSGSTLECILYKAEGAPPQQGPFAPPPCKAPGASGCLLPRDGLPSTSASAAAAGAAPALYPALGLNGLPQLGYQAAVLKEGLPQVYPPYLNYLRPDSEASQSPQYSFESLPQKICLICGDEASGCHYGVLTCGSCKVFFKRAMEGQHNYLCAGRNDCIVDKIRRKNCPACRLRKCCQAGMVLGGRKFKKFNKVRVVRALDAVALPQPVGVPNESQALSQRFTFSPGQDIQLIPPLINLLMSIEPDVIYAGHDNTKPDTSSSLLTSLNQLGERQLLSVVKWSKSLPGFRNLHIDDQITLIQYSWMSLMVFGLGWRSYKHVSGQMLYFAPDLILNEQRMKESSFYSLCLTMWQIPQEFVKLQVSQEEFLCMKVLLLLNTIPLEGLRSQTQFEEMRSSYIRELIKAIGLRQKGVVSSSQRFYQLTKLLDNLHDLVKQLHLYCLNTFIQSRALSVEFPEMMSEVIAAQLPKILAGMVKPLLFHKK

[2] = biological target: T5, Alpha-1A adrenergic receptor (Homo sapiens, UniProt P35348)
T5 sequence (P35348 whole entry): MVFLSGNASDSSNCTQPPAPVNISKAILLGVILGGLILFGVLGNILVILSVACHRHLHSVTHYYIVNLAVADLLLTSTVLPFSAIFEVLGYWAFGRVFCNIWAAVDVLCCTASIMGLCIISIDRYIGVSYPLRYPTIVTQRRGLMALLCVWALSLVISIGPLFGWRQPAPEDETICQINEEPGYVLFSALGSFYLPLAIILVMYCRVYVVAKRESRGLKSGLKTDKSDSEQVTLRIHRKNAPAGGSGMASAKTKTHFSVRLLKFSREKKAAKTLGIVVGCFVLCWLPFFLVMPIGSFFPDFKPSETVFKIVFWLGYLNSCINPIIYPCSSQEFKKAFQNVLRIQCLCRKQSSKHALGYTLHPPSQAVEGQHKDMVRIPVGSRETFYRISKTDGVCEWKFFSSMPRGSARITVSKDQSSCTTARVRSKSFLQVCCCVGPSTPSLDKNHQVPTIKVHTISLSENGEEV

[3] = biological target: Muscarinic acetylcholine receptor M3 (Homo sapiens, UniProt P20309)
Sequence of Muscarinic acetylcholine receptor M3 (P20309 whole entry): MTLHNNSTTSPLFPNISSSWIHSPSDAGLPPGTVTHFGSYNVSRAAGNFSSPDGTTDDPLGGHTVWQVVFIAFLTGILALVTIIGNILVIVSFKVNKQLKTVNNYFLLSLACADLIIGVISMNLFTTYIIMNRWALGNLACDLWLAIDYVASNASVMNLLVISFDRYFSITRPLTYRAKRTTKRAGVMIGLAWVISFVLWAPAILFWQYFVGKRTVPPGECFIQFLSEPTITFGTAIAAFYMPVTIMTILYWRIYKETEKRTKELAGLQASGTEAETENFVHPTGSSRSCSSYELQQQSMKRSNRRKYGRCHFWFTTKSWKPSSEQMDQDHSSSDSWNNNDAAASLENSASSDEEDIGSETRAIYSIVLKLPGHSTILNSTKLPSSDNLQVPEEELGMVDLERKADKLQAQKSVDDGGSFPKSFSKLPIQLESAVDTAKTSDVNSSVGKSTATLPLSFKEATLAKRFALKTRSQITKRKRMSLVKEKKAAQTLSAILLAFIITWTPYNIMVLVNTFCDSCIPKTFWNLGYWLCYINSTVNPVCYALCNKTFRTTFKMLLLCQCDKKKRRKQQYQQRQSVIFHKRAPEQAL

[4] = biological target: T2, Beta-2 adrenergic receptor; format: functional, cell-based
Note: assay procedure not described here.

Row | AC50 (Glucocorticoid receptor) [µM] | AC50 (Vasopressin V1a receptor) [µM] | AC50 (Histamine H3 receptor) [µM] | AC50 [1] [µM] | AC50 [3] [µM] | Structure (SMILES) | AC50 (Mu-type opioid receptor) [µM] | AC50 (Endothelin-1 receptor) [µM] | AC50 (Progesterone receptor) [µM] | AC50 [2] [µM] | AC50 [4] [µM]
1 |  | > 10 | > 10 | > 10 |  | C[C@H]1C[C@H]2[C@@H]3CCC4=CC(=O)C=C[C@]4(C)[C@@]3(Cl)[C@@H](O)C[C@]2(C)[C@@]1(O)C(=O)CO [BECLOMETHASONE] | > 30 | > 30 | > 30 |  | 
2 |  |  |  |  |  | CO[C@@]1(NC(=O)CSCC#N)C(=O)N2C(C(=O)O)=C(CSc3nnnn3C)CS[C@@H]21 [CEFMETAZOLE] |  |  |  |  | > 30
3 | > 30 | > 30 | > 30 | > 30 | > 30 | C[C@@H]1CCC[C@H](C)N1NC(=O)c1ccc(Cl)c(S(N)(=O)=O)c1 [CLOPAMIDE] |  | > 30 |  |  | 
4 |  | > 30 | > 30 | > 30 | > 30 | O=C(O)CSCC(=O)NC1CCSC1=O (configuration not stated) [ERDOSTEINE] |  | > 30 |  |  | 
5 |  | > 30 | > 30 | > 30 | > 30 | COc1cccc(N(C)C(=S)Oc2ccc3c(c2)CCCC3)n1 [LIRANAFTATE] |  | > 30 |  |  | 
6 | 0.516 |  |  | > 10 |  | C#C[C@]1(O)CC[C@H]2[C@@H]3CCc4cc(OC)ccc4[C@H]3CC[C@@]21C [MESTRANOL] | > 30 |  |  | > 30 | 
7 |  | > 30 | 7.9 |  | 15 | N=C(N)c1ccc2cc(OC(=O)c3ccc(N=C(N)N)cc3)ccc2c1 [NAFAMOSTAT] |  | > 30 |  |  | 
8 | > 30 | > 30 | > 30 | > 30 | 2.2 | O=C(O)c1cc(O)c2c3nc4ccccc4oc-3cc(=O)c2n1 [PIRENOXINE] |  | > 30 |  |  | 
9 | > 30 | > 30 | > 30 | > 30 | > 30 | NS(=O)(=O)c1cc(C(=O)O)cc(N2CCCC2)c1Oc1ccccc1 [PIRETANIDE] |  | > 30 |  |  | 
10 | > 10 | > 10 |  |  |  | CNCCCC1c2ccccc2C=Cc2ccccc21 [PROTRIPTYLINE] | > 10 |  |  | 0.461 | 
11 | > 30 | > 30 | > 30 | 22 | > 30 | CC(C)=CCOc1ccc(/C=C/C(=O)c2ccc(OCC=C(C)C)cc2OCC(=O)O)cc1 [SOFALCONE] |  | > 30 |  |  | 
12 | > 30 | > 30 | > 30 | > 30 | > 30 | CN(C)c1cc(NC(=O)CNC(C)(C)C)c(O)c2c1C[C@H]1C[C@H]3[C@H](N(C)C)C(O)=C(C(N)=O)C(=O)[C@@]3(O)C(O)=C1C2=O [TIGECYCLINE] |  |  |  | > 30 | 
13 | > 10 | > 10 |  | > 10 | > 10 | OCCN1CCN(CC/C=C2/c3ccccc3Sc3ccc(Cl)cc32)CC1 [ZUCLOPENTHIXOL] | > 10 |  |  | 0.0114 | 

Row | Structure (SMILES) | AC50 (Glucocorticoid receptor) [µM] | AC50 (Vasopressin V1a receptor) [µM] | AC50 (Histamine H3 receptor) [µM] | AC50 [1] [µM] | AC50 [3] [µM] | AC50 (Mu-type opioid receptor) [µM] | AC50 (Endothelin-1 receptor) [µM] | AC50 (Progesterone receptor) [µM] | AC50 [2] [µM] | AC50 [4] [µM]
14 | C[C@]1(COc2ccc(N3CCC(Oc4ccc(OC(F)(F)F)cc4)CC3)cc2)Cn2cc([N+](=O)[O-])nc2O1 | > 30 | > 10 | > 10 | > 10 |  | > 10 | > 30 | > 30 |  | 
15 | CC(=O)OCC[N+](C)(C)C [ACETYLCHOLINE] | > 30 | > 30 | > 10 | > 30 |  | > 10 | > 30 | > 30 | > 10 | 
16 | O=C(Nc1nc(-c2cc(Cl)cs2)c(N2CCN(C3CCCCC3)CC2)s1)c1cnc(N2CCC(C(=O)O)CC2)c(Cl)c1 [AVATROMBOPAG] |  | > 10 | > 10 | > 10 | > 10 | > 10 | > 10 |  |  | 
17 | CN(C)C(=O)Oc1cc(OC(=O)N(C)C)cc(C(O)CNC(C)(C)C)c1 (configuration not stated) [BAMBUTEROL] | > 30 | > 30 | > 30 | 9.7 |  |  | > 30 |  |  | 
18 | CO/N=C(\C(=O)N[C@@H]1C(=O)N2C(C(=O)[O-])=C(C[n+]3cccc4c3CCC4)CS[C@H]12)c1csc(N)n1 [CEFPIROME] |  |  |  |  | > 30 |  |  |  |  | > 30
19 | NS(=O)(=O)c1cc(C2(O)NC(=O)c3ccccc32)ccc1Cl (configuration not stated) [CHLORTHALIDONE] | > 10 |  |  | > 10 |  | > 30 |  |  | > 10 | 
20 | CC[C@H]1OC(=O)[C@H](C)[C@@H](O[C@H]2C[C@@](C)(OC)[C@@H](O)[C@H](C)O2)[C@H](C)[C@@H](O[C@@H]2O[C@H](C)C[C@H](N(C)C)[C@H]2O)[C@](C)(OC)C[C@@H](C)C(=O)[C@H](C)[C@@H](O)[C@]1(C)O [CLARITHROMYCIN] | > 30 | > 30 | > 30 |  |  |  | > 30 |  |  | > 30
21 | Oc1c(I)cc(Cl)c2cccnc12 [CLIOQUINOL] |  |  |  |  | > 30 |  |  |  |  | > 10
22 | O=c1oc2ccccc2c(O)c1Cc1c(O)c2ccccc2oc1=O [DICUMAROL] |  |  |  | > 10 |  | > 30 |  |  | > 10 | 
23 | CCn1cc(C(=O)O)c(=O)c2cc(F)c(N3CCNCC3)nc21 [ENOXACIN] |  | > 10 | > 10 | > 10 |  | > 10 | 11.3 | > 30 | > 10 | 
24 | CNC(=O)Oc1ccc2c(c1)[C@]1(C)CCN(C)[C@@H]1N2C [PHYSOSTIGMINE] | > 30 | > 30 | 16 | > 30 |  |  | > 30 |  |  | > 30
25 | O=C(CCCN1CCC2(CC1)C(=O)NCN2c1ccccc1)c1ccc(F)cc1 [SPIPERONE] | > 30 | > 30 | 9.2 |  | > 30 |  | > 30 |  | 0.31 | > 30
